Earlier results as cited in paper PMC3085280 (Tetrahedron, 2009).

Test system: κ-opioid

**Q.** With COC(=O)[C@@H]1C[C@H](OC(C)=O)C(=O)[C@H]2[C@@]1(C)CC[C@H]1C(=O)O[C@H](c3ccoc3)C[C@]21C [Compound 1, Salvinorin A] as the molecule, how does the κ-opioid agonist activity read?
**A.** potent and selective κ-opioid agonist
